Results on 2 compounds are retold here after US9238021B2, “Method of producing a cationic liposomal preparation comprising a lipophilic compound” (MEDIGENE AG, priority 2002, dated 2016).

Converted amounts (≈) assume the structure as drawn.

The conditions of data set [1]: murine plasma; cited from earlier work.
The conditions of data set [2]: human plasma; cited from earlier work.
Data set [3] is described as follows: Solubility of docetaxel in trehalose or water. It counts as physicochemical.

Regarding `C/C1=C/C[C@@H](/C(C)=C/c2csc(C)n2)OC(=O)C[C@H](O)C(C)(C)C(=O)[C@H](C)[C@@H](O)[C@@H](C)CCC1` [desoxy-epothilone B], in data set [1], the “in vitro half life” value is reported as ~20 min. For the same compound, the half life result in data set [2] was “around 3 h”.
Consider `CC(=O)O[C@@]12CO[C@@H]1C[C@H](O)[C@@]1(C)C(=O)[C@H](O)C3=C(C)[C@@H](OC(=O)[C@H](O)[C@@H](NC(=O)OC(C)(C)C)c4ccccc4)C[C@@](O)([C@@H](OC(=O)c4ccccc4)[C@H]21)C3(C)C` [docetaxel], for which, in data set [3], the solubility is ~20 µM (≈ 16.2 µg/mL).
